Patent US6110888A, “Substituted phenols as fragrance, flavor and antimicrobial compounds” (Takasago International Corporation, priority 1999, dated 2000)
≈ marks a conversion by molar mass, not a printed value. Where two headings read alike, the source gives them in different places.

Key:
Aspergillus niger = assay: MIC, A. niger (Table 2); type: cell-based; settings: read-out: Anti-Microbial Activity MIC, A. niger
Description: (§1) Anti-Microbial Activity of Examples 1-6 (MIC in μg/mL)
(§2) Antimicrobial activity was evaluated to determine minimal inhibitory concentration ("MIC") and Minimal Bactericidal Concentration ("MBC"). The specific biological testing protocol is published R. Kang et al., "J. Agric. Food Chem.," vol. 40 pp. 2328-2330 (1994), the entirety of which is herein incorporated by reference.

Actinomyces neaslundii = assay: MIC, A. neaslundii (Table 1); type: cell-based; settings: read-out: Anti-Microbial Activity MIC, A. neasl
Description: (§3) The anti-microbial activity of Examples 1-6 were evaluated.
as §1, §2

Pseudomonas aeruginosa = assay: MIC, P. aeruginosa (Table 2); type: cell-based; settings: read-out: Anti-Microbial Activity MIC, P. aerug.
Description: as §1, §2

Corynebacterium xerosis = assay: MIC, C. xerosis (Table 1); type: cell-based; settings: read-out: Anti-Microbial Activity MIC, C. x.
Description: as §3, §1, §2

Staphylococcus aureus = assay: MIC, S. aureus (Table 1); type: cell-based; settings: read-out: Anti-Microbial Activity MIC, S. a.
Description: as §3, §1, §2

Propionibacterium acnes = assay: MIC, P. acnes (Table 1); type: cell-based; settings: Cutibacterium acnes, read-out: Anti-Microbial Activity MIC, P. acnes
Description: as §3, §1, §2

[1] = tested on: Staphylococcus epidermidis; assay: MIC, S. epidermidis (Table 1); type: cell-based; settings: read-out: Anti-Microbial Activity MIC, S. e.
Description: as §3, §1, §2

Candida albicans = assay: MIC, C. albicans (Table 2); type: cell-based; settings: read-out: Anti-Microbial Activity MIC, C. a.
Description: as §1, §2

Steptococcus mutans = assay: MIC, S. mutans (Table 1); type: cell-based; settings: Streptococcus mutans, read-out: Anti-Microbial Activity MIC, S. m.
Description: as §3, §1, §2

[2] = tested on: Corynebacterium minutissimum; assay: MIC, C. minutissimum (Table 1); type: cell-based; settings: read-out: Anti-Microbial Activity MIC, C. m.
Description: as §3, §1, §2

Escherichia coli = assay: MIC, E. coli (Table 2); type: cell-based; settings: read-out: Anti-Microbial Activity MIC, E. c.
Description: as §1, §2

[3] = tested on: bacteria involved in upper respiratory tract infections; settings: N. Didry et al. 1993; cited from earlier work
oral bacteria = settings: N. Didry et al. 1994; cited from earlier work
[4] = A. neaslundii strain 19039, gram+
[5] = P. aeruginosa strain 15442, gram -
[6] = S. epidermidis strain 1228, gram+
[7] = C. albicans strain 10231, fungi
[8] = C. minutissimum strain 23348, gram+

Compound | MIC (Corynebacterium xerosis; C. xerosis strain 373, gram+) | MIC (Staphylococcus aureus; S. aureus strain 6535, gram+) | MIC (Propionibacterium acnes; P. acnes strain 6919, gram+) | MIC [1, 6] | MIC [2, 8] | MIC (Escherichia coli; E. coli strain 11229, gram -) | antimicrobial activity in several in vitro methods [3] | inhibitory activity on several microorganisms (oral bacteria) | also measured
CCCc1cc(C)c(O)cc1C(C)C [Example 4b, Para Propyl Carvacrol] | ≤ 15.6 µg/mL | ≤ 15.6 µg/mL | ≤ 15.6 µg/mL | 31.2 µg/mL (≈ 163 µM) | ≤ 15.6 µg/mL | > 1000 µg/mL | – | – | MIC (Aspergillus niger; A. niger strain 16404, fungi): 62.5 µg/mL (≈ 325 µM); MIC (Actinomyces neaslundii; [4]): ≤ 15.6 µg/mL; MIC (Pseudomonas aeruginosa; [5]): > 1000 µg/mL; MIC (Candida albicans; [7]): 62.5 µg/mL (≈ 325 µM); MIC (Steptococcus mutans; S. mutans strain 25175, gram+): ≤ 15.6 µg/mL
C=CCc1cc(C(C)(C)C)ccc1O [Example 5, Ortho Allyl Para tert-Butyl Phenol] | 31.2 µg/mL (≈ 164 µM) | 31.2 µg/mL (≈ 164 µM) | 15.6 µg/mL (≈ 82 µM) | 31.2 µg/mL (≈ 164 µM) | 31.2 µg/mL (≈ 164 µM) | > 500 µg/mL | – | – | –
CCCc1cc(C(C)(C)C)ccc1O [Example 6, Ortho Propyl Para tert-Butyl Phenol] | 15.6 µg/mL (≈ 81.1 µM) | 15.6 µg/mL (≈ 81.1 µM) | 7.8 µg/mL (≈ 40.6 µM) | 15.6 µg/mL (≈ 81.1 µM) | 15.6 µg/mL (≈ 81.1 µM) | > 500 µg/mL | – | – | –
Cc1ccc(C(C)C)c(O)c1 [Thymol, thymol, reference compound] | 250 µg/mL (≈ 1660 µM) | 250 µg/mL (≈ 1660 µM) | 125 µg/mL (≈ 832 µM) | 250 µg/mL (≈ 1660 µM) | 125 µg/mL (≈ 832 µM) | 250 µg/mL (≈ 1660 µM) | broad spectrum activity | showed an inhibitory activity on several microorganisms | MIC (Aspergillus niger; A. niger strain 16404, fungi): 125 µg/mL (≈ 832 µM); MIC (Actinomyces neaslundii; [4]): 125 µg/mL (≈ 832 µM); MIC (Pseudomonas aeruginosa; [5]): > 1000 µg/mL; MIC (Candida albicans; [7]): 250 µg/mL (≈ 1660 µM); MIC (Steptococcus mutans; S. mutans strain 25175, gram+): 250 µg/mL (≈ 1660 µM)
Cc1ccc(C(C)C)cc1O [carvacrol, reference compound] | – | – | – | – | – | – | broad spectrum activity | showed an inhibitory activity on several microorganisms | MIC (Aspergillus niger): 250 µg/mL (≈ 1660 µM); MIC (Actinomyces neaslundii): 125 µg/mL (≈ 832 µM); MIC (Pseudomonas aeruginosa): > 1000 µg/mL; MIC (Corynebacterium xerosis): 125 µg/mL (≈ 832 µM); MIC (Staphylococcus aureus): 125 µg/mL (≈ 832 µM); MIC (Propionibacterium acnes): 125 µg/mL (≈ 832 µM); MIC [1]: 125 µg/mL (≈ 832 µM); MIC (Candida albicans): 250 µg/mL (≈ 1660 µM); MIC (Steptococcus mutans): 125 µg/mL (≈ 832 µM); MIC [2]: 125 µg/mL (≈ 832 µM); MIC (Escherichia coli): 500 µg/mL (≈ 3330 µM)
O=CC=Cc1ccccc1 [cinnamaldehyde] | – | – | – | – | – | – | broad spectrum activity | showed an inhibitory activity on several microorganisms | –
C=CCc1ccc(O)c(OC)c1 [eugenol] | – | – | – | – | – | – | – | showed an inhibitory activity on several microorganisms | –
